Source: PubChem BioAssay (NCI)
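Following 48 hours of exposure in 96-well plates, responses at five concentrations were used to interpolate endpoints linearly. GI50 marks 50% less growth. TGI: concentration producing complete growth inhibition.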

Columns and labels:
Assay in all cases: growth of human tumour cells (NCI), 48 h; in the data active means GI50 below about 0.43 µM; inactive means the rest
[1] = system: HCT-15 colon
[2] = system: RPMI-8226 leukemia
[3] = system: CCRF-CEM leukemia
[4] = system: SK-MEL-2 melanoma
[5] = system: SK-MEL-5 melanoma
[6] = system: OVCAR-5 ovarian
[7] = system: UACC-62 melanoma
[8] = system: HOP-62 NSCLC
[9] = system: COLO 205 colon
[10] = system: NCI-H522 lung
[11] = system: NCI-H460 lung
[12] = system: HCC-2998 colon
[13] = system: LOX IMVI melanoma
[14] = system: A498 renal
[15] = system: MDA-MB-435
[16] = system: 786-0 renal
[17] = system: CAKI-1 renal
[18] = system: HS 578T breast
[19] = system: BT-549 breast
[20] = system: MCF7 breast
[21] = system: UACC-257 melanoma
[22] = system: NCI-H226 lung
[23] = system: RXF 393 renal
[24] = system: SK-OV-3 ovarian
[25] = system: OVCAR-3 ovarian
[26] = system: A549 NSCLC
[27] = system: SK-MEL-28 melanoma
[28] = system: HL-60(TB) leukemia
[29] = system: SF-539 CNS
[30] = system: SNB-75 CNS
[31] = system: HOP-92 NSCLC
[32] = system: OVCAR-4 ovarian
[33] = system: NCI/ADR-RES ovarian
[34] = system: DU-145 prostate
[35] = system: MDA-MB-231 breast
[36] = system: IGROV1 ovarian
[37] = system: SNB-19 CNS
[38] = system: U251 CNS
[39] = system: PC-3 prostate
[40] = system: ACHN renal
[41] = system: T-47D breast
[42] = system: SF-295 CNS
[43] = system: HT29 colon
[44] = system: SN12C renal
[45] = system: MOLT-4 leukemia
[46] = system: SR leukemia
[47] = system: MALME-3M melanoma
[48] = system: NCI-H23 lung
[49] = system: M14 melanoma
[50] = system: SW-620 colon
[51] = system: TK-10 renal
[52] = system: K-562 leukemia
[53] = system: KM12 colon
[54] = system: SF-268 CNS
[55] = system: HCT-116 colon
[56] = system: EKVX NSCLC
[57] = system: UO-31 renal
[58] = system: OVCAR-8 ovarian
[59] = system: MDA-N

C=CC(=O)N1CCC([C@@H]2CCNc3c(C(N)=O)c(-c4ccc(Oc5ccccc5)cc4)nn32)CC1
61.3 µM: TGI [34]
> 89.7 µM: TGI [11]
> 73.2 µM: TGI [3]
44.7 µM: TGI [17]
26.8 µM: TGI [47]
56.4 µM: TGI [29] | TGI [35]
> 93.6 µM: TGI [45]
46.8 µM: TGI [18]
30.6 µM: TGI [27] | TGI [30]
> 66.4 µM: TGI [57]
74.2 µM: TGI [58]
80.4 µM: TGI [44]
20.3 µM: TGI [10]
> 87.1 µM: TGI [41]
28.7 µM: TGI [5]
7.77 µM: TGI [51]
> 77.1 µM: TGI [38]
42.5 µM: TGI [22]
98.9 µM: TGI [53]
36.3 µM: TGI [13]
39.3 µM: TGI [55]
26.6 µM: TGI [7]
> 75.1 µM: TGI [8]
97.2 µM: TGI [32]
16.7 µM: TGI [36]
31 µM: TGI [19]
29.6 µM: TGI [12]
49.7 µM: TGI [28]
44.6 µM: TGI [15]
46.5 µM: TGI [1]
42.8 µM: TGI [2]
46.1 µM: TGI [50]
> 62.6 µM: TGI [40]
32 µM: TGI [25]
69.3 µM: TGI [39]
14.2 µM: TGI [24]
inactive: GI50 [1] 15.3 µM | GI50 [2] 14.5 µM | GI50 [3] 19.4 µM | GI50 [4] 18.2 µM | GI50 [5] 14.5 µM | GI50 [6] 22.2 µM | GI50 [7] 11.4 µM | GI50 [8] 16.9 µM | GI50 [9] 22.1 µM | GI50 [10] 3.06 µM | GI50 [11] 29.8 µM | GI50 [12] 14.2 µM | GI50 [13] 15.2 µM | GI50 [14] 1.67 µM | GI50 [15] 17.8 µM | GI50 [16] 12.9 µM | GI50 [17] 10.4 µM | GI50 [18] 14.7 µM | GI50 [19] 11.9 µM | GI50 [20] 23.1 µM | GI50 [21] 16.5 µM | GI50 [22] 11.9 µM | GI50 [23] 9.05 µM | GI50 [25] 11 µM | GI50 [26] 13.2 µM | GI50 [27] 15.6 µM | GI50 [28] 15.5 µM | GI50 [29] 16.8 µM | GI50 [30] 5.39 µM | GI50 [31] 13.6 µM | GI50 [32] 13.5 µM | GI50 [33] 17.8 µM | GI50 [34] 6.82 µM | GI50 [35] 18.4 µM | GI50 [36] 0.912 µM | GI50 [37] 16.9 µM | GI50 [38] 17.6 µM | GI50 [39] 20.5 µM | GI50 [40] 2.34 µM | GI50 [41] 3.49 µM | GI50 [42] 22.4 µM | GI50 [43] 16.5 µM | GI50 [44] 12.1 µM | GI50 [45] 15.9 µM | GI50 [46] 23.9 µM | GI50 [47] 11.6 µM | GI50 [48] 17.5 µM | GI50 [49] 14.4 µM | GI50 [50] 19.2 µM | GI50 [52] 25.3 µM | GI50 [53] 31.5 µM | GI50 [54] 9.07 µM | GI50 [55] 17.1 µM | GI50 [56] 2.35 µM | GI50 [57] 2.96 µM | GI50 [58] 13.8 µM
> 71.1 µM: TGI [43]
40 µM: TGI [4]
> 74.3 µM: TGI [9]
50.4 µM: TGI [21]
34.4 µM: TGI [54]
> 100 µM: TGI [6] | TGI [20] | TGI [26] | TGI [37] | TGI [46] | TGI [52] | TGI [56]
25.5 µM: TGI [23]
43.7 µM: TGI [31]
53.1 µM: TGI [16]
> 96.6 µM: TGI [33]
43.2 µM: TGI [48]
active: GI50 [24] 0.338 µM | GI50 [51] 0.385 µM
> 76.6 µM: TGI [42]
9.25 µM: TGI [14]
31.9 µM: TGI [49]

C/C1=C\[C@H](C)C[C@H](C)OC(=O)C[C@H](c2ccc(O)cc2)NC(=O)[C@H](Cc2ccc(O)c(Br)c2)N(C)C(=O)[C@H](C)NC(=O)[C@@H](C)C1
> 25 µM: TGI [1] | TGI [2] | TGI [3] | TGI [4] | TGI [5] | TGI [6] | TGI [7] | TGI [8] | TGI [9] | TGI [10] | TGI [13] | TGI [14] | TGI [15] | TGI [16] | TGI [18] | TGI [20] | TGI [22] | TGI [24] | TGI [25] | TGI [26] | TGI [27] | TGI [30] | TGI [31] | TGI [32] | TGI [33] | TGI [34] | TGI [35] | TGI [36] | TGI [37] | TGI [38] | TGI [39] | TGI [40] | TGI [42] | TGI [43] | TGI [59] | TGI [44] | TGI [45] | TGI [46] | TGI [47] | TGI [48] | TGI [49] | TGI [50] | TGI [51] | TGI [52] | TGI [53] | TGI [54] | TGI [55] | TGI [56] | TGI [57] | TGI [58]
